Legend:
[1] = compound: C1CN(CCC1(C(=O)N[C@@H](CCO)C2=CC=C(C=C2)Cl)N)C3=NC=NC4=C3C=CN4 [Capivasertib]
Summary of the method: (§1)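 Plates with 1536 wells received cancer cell lines in 7.5 μl of DMEM/F12 or RPMI containing 10% FBS. After 24 hours at 37°C and 5% CO2, cells were dosed for 72 hours with final DMSO typically 0.2%, and viability was read by CellTiter-Glo 2.0 luminescence scaled between blank-well and DMSO-well means. The single-agent IC50 was taken from a logistic fit of the dose responses made with a non-linear mixed effects model, that logistic curve having two parameters.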

[2] = compound: C=CCn1c(=O)c2cnc(Nc3ccc(N4CCN(C)CC4)cc3)nc2n1-c1cccc(C(C)(C)O)n1 [AZD1775]
Summary of the method: as §1

[3] = compound: CC(=O)Nc1cccc(-n2c(=O)n(C3CC3)c(=O)c3c(Nc4ccc(I)cc4F)n(C)c(=O)c(C)c32)c1 [Trametinib]; details: max 1 µM
Summary of the method: as §1

[4] = compound: CC(=O)c1c(C)c2cnc(Nc3ccc(N4CCNCC4)cn3)nc2n(C2CCCC2)c1=O [Palbociclib]; details: max 10 µM
Summary of the method: as §1

[5] = compound: CC(C)n1c(=O)n(C)c2cnc3cc(F)c(-c4ccc(OCCCN5CCCCC5)nc4)cc3c21 [AZD1390]; details: max 0.3 µM
Summary of the method: as §1

[6] = compound: CC1(C)CCC(CN2CCN(c3ccc(C(=O)NS(=O)(=O)c4ccc(NCC5CCOCC5)c([N+](=O)[O-])c4)c(Oc4cnc5[nH]ccc5c4)c3)CC2)=C(c2ccc(Cl)cc2)C1 [Venetoclax]; details: max 1 µM
Summary of the method: as §1

[7] = compound: CC1=C(C(=CC=C1)Cl)NC(=O)C2=CN=C(S2)NC3=CC(=NC(=N3)C)N4CCN(CC4)CCO [Dasatinib]; details: max 2 µM
Summary of the method: as §1

[8] = compound: CC1=CN2[C@@H](C1)C=NC3=CC(=C(C=C3C2=O)OC)OCCCCCOC4=C(C=C5C(=C4)N=C[C@@H]6CC(=CN6C5=O)C)OC [SG3199]; details: max 0.001 µM
Summary of the method: as §1

[9] = compound: CCN(CCO)CCCOc1ccc2c(Nc3cc(CC(=O)Nc4cccc(F)c4)[nH]n3)ncnc2c1 [AZD2811]; details: max 1 µM
Summary of the method: as §1

[10] = compound: CCc1c2c(nc3ccc(O)cc13)-c1cc3c(c(=O)n1C2)COC(=O)[C@]3(O)CC [SN-38]; details: max 0.3 µM
Summary of the method: as §1

[11] = compound: CN(C)CCCOc1ccc(-c2ccc3ncc4c(c3c2)n(C2CCOCC2)c(=O)n4C)cn1 [AZD0156]
Summary of the method: as §1

[12] = compound: CN(CC[C@H](CSC1=CC=CC=C1)NC2=C(C=C(C=C2)S(=O)(=O)NC(=O)C3=CC=C(C=C3)N4CCC(CC4)[C@H](C5=CC=CC=C5C6=CC=C(C=C6)Cl)O)S(=O)(=O)C(F)(F)F)CCO [AZD4320]; details: max 1 µM
Summary of the method: as §1

[13] = compound: COc1cc(Nc2ncc3c(n2)-c2ccc(Cl)cc2C(c2c(F)cccc2OC)=NC3)ccc1C(=O)O [Alisertib]; details: max 10 µM
Summary of the method: as §1

[14] = compound: COc1cc2ncnc(Nc3ccc(F)c(Cl)c3)c2cc1OCCCN1CCOCC1 [Gefitinib]; details: max 10 µM
Summary of the method: as §1

[15] = compound: COc1cccc(OCCCN)c1-c1cc(Nc2cnc(C#N)cn2)n[nH]1 [Prexasertib]; details: max 1 µM
Summary of the method: as §1

[16] = compound: COc1cccc2c1C(=O)c1c(O)c3c(c(O)c1C2=O)C[C@@](O)(C(=O)CO)C[C@@H]3O[C@H]1C[C@H](N)[C@H](O)[C@H](C)O1 [Doxorubicin]; details: max 1 µM
Summary of the method: as §1

[17] = compound: COc1nnc2ccc(N3CCC(c4ccc(OCCN5CCN(C)C(=O)[C@H]5C)cc4)CC3)nn12 [AZD5153]; details: max 1 µM
Summary of the method: as §1

[18] = compound: CS(=O)(=O)CCNCc1ccc(-c2ccc3ncnc(Nc4ccc(OCc5cccc(F)c5)c(Cl)c4)c3c2)o1 [Lapatinib]; details: max 10 µM
Summary of the method: as §1

[19] = compound: C[C@@H](Nc1cc(F)cc(F)c1)c1cc(C(=O)N(C)C)cc2c(=O)cc(N3CCOCC3)oc12 [AZD8186]; details: max 3 µM
Summary of the method: as §1

[20] = compound: C[C@@H](Oc1cc(-c2cnn(C3CCNCC3)c2)cnc1N)c1c(Cl)ccc(F)c1Cl [Crizotinib]; details: max 10 µM
Summary of the method: as §1

[21] = compound: C[C@@H](c1ccc2nccn2c1)n1nnc2ncc(-c3cnn(C)c3)nc21 [Savolitinib]; details: max 1 µM
Summary of the method: as §1

[22] = compound: C[C@@H]1COCCN1C2=NC(=NC(=C2)C3(CC3)[S@](=N)(=O)C)C4=C5C=CNC5=NC=C4 [AZD6738]; details: max 10 µM
Summary of the method: as §1

[23] = compound: Cc1c2c(nn1C)CSCc1cc(n(C)n1)CSc1cc(c3ccccc3c1)OCCCc1c(C(=O)O)n(C)c3c-2c(Cl)ccc13 [AZD5991]; details: max 1 µM
Summary of the method: as §1

[24] = compound: Cc1cc2ncnn2cc1Nc1ncc2c(n1)n(C1CCOCC1)c(=O)n2C [AZD7648]; details: max 10 µM
Summary of the method: as §1

[25] = compound: Cc1nc(-c2cn3c(n2)-c2ccc(-c4cnn(C(C)(C)C(N)=O)c4)cc2OCC3)n(C(C)C)n1 [Taselisib]; details: max 10 µM
Summary of the method: as §1

[26] = compound: Cn1cnc2c(F)c(Nc3ccc(Br)cc3Cl)c(C(=O)NOCCO)cc21 [Selumetinib]
Summary of the method: as §1

[27] = compound: O=C(c1cc(Cc2n[nH]c(=O)c3ccccc23)ccc1F)N1CCN(C(=O)C2CC2)CC1 [Olaparib]; details: max 10 µM
Summary of the method: as §1

Cell Line | IC50, cell viability 72 h ([1]; max 10 µM) | IC50, cell viability 72 h ([2]; max 3 µM) | IC50, cell viability 72 h [3] | IC50, cell viability 72 h [4] | IC50, cell viability 72 h [5] | IC50, cell viability 72 h [6] | IC50, cell viability 72 h [7] | IC50, cell viability 72 h [8] | IC50, cell viability 72 h [9] | IC50, cell viability 72 h [10] | IC50, cell viability 72 h ([11]; max 3 µM) | IC50, cell viability 72 h [12] | IC50, cell viability 72 h [13] | IC50, cell viability 72 h [14] | IC50, cell viability 72 h [15] | IC50, cell viability 72 h [16] | IC50, cell viability 72 h [17] | IC50, cell viability 72 h [18] | IC50, cell viability 72 h [19] | IC50, cell viability 72 h [20] | IC50, cell viability 72 h [21] | IC50, cell viability 72 h [22] | IC50, cell viability 72 h [23] | IC50, cell viability 72 h [24] | IC50, cell viability 72 h [25] | IC50, cell viability 72 h ([26]; max 10 µM) | IC50, cell viability 72 h [27] | IC50, cell viability 72 h ([1]; max 3 µM) | IC50, cell viability 72 h ([2]; max 1 µM) | IC50, cell viability 72 h ([11]; max 1 µM) | IC50, cell viability 72 h ([26]; max 3 µM)
NCI-H1341 (Small Cell Lung Carcinoma) | 9050 nM | 1240 nM | > 1000 nM | > 10000 nM | > 300 nM | > 1000 nM | > 2000 nM | > 1 nM | > 1000 nM | 13.8 nM | > 3000 nM | 59.3 nM | 910 nM | > 10000 nM | 47.1 nM | 587 nM | 739 nM | > 10000 nM | > 3000 nM | > 10000 nM | > 1000 nM | 6030 nM | > 1000 nM | > 10000 nM | 684 nM | > 10000 nM | > 10000 nM | – | – | – | –
NCI-H2373 (Mesothelioma) | > 10000 nM | > 3000 nM | > 1000 nM | > 10000 nM | > 300 nM | > 1000 nM | > 2000 nM | > 1 nM | > 1000 nM | 58.9 nM | > 3000 nM | > 1000 nM | > 10000 nM | > 10000 nM | > 1000 nM | 313 nM | > 1000 nM | > 10000 nM | > 3000 nM | > 10000 nM | > 1000 nM | > 10000 nM | > 1000 nM | > 10000 nM | 3520 nM | > 10000 nM | > 10000 nM | – | – | – | –
TUR (Acute Myeloid Leukemia) | 2860 nM | 575 nM | > 1000 nM | > 10000 nM | > 300 nM | > 1000 nM | > 2000 nM | > 1 nM | > 1000 nM | 22.9 nM | > 3000 nM | > 1000 nM | > 10000 nM | > 10000 nM | 16.4 nM | 626 nM | > 1000 nM | > 10000 nM | > 3000 nM | > 10000 nM | > 1000 nM | 3440 nM | – | > 10000 nM | 1210 nM | > 10000 nM | > 10000 nM | – | – | – | –
NMC-G1 (Low Grade Glioma) | – | – | > 1000 nM | – | – | > 1000 nM | – | > 1 nM | > 1000 nM | > 300 nM | – | > 1000 nM | > 10000 nM | – | > 1000 nM | > 1000 nM | – | – | > 3000 nM | – | – | > 10000 nM | > 1000 nM | > 10000 nM | > 10000 nM | – | > 10000 nM | > 3000 nM | > 1000 nM | > 1000 nM | > 3000 nM

— the supplement of paper PMC11061612
